In patent US20230127326A1, “C3-SUBSTITUTED 1H-PYRAZOLO[4,3-d]PYRIMIDINE COMPOUNDS AS TOLL-LIKE RECEPTOR 7 (TLR7) AGONISTS” (BRISTOL-MYERS SQUIBB COMPANY, priority 2020, published 2023):

Assays:
CD69 = experiment: Induction of CD69 in human whole blood; assay type: cell-based; settings: 17 hrs at 37° C., y-axis 100% set to 1 uM of resiquimod, average where assay was performed multiple times, read-out: hWB CD69 EC50
Protocol: The induction of Type I interferon (IFN) MX-1 genes and the B-cell activation marker CD69 are downstream events that occur upon activation of the TLR7 pathway. The following is a human whole blood assay that measures their induction in response to a TLR7 agonist.
Heparinized human whole blood was harvested from human subjects and treated with test TLR7 agonist compounds at 1 mM. The blood was diluted with RPMI 1640 media and Echo was used to predot 10 nL per well giving a final concentration of 1 uM (10 nL in 10 uL of blood). After mixing on a shaker for 30 sec, the plates were covered and placed in a 37° C. chamber for o/n=17 hrs. Fixing/lysis buffer was prepared (5×->1× in H2O, warm at 37° C.; Cat #BD 558049) and kept the perm buffer (on ice) for later use.
For surface markers staining (CD69): prepared surface Abs: 0.045 ul hCD14-FITC (ThermoFisher Cat #MHCD1401)+0.6 ul hCD19-ef450 (ThermoFisher Cat #48-0198-42)+1.5 ul hCD69-PE (cat #BD555531)+0.855 ul FACS buffer. Added 3 ul/well, spin 1000 rpm for 1 min and mixed on shaker for 30 sec, put on ice for 30 mins. Stop stimulation after 30 minutes with 70 uL of prewarmed 1× fix/lysis buffer and use Feliex mate to resuspend (15 times, change tips for each plate) and incubate at 37 C for 10 minutes.
Centrifuge at 2000 rpm for 5 minutes aspirate with HCS plate washer, mix on shaker for 30 sec and then wash with 70 uL in dPBS and pelleted 2×s (2000 rpm for 5 min) and 50 ul wash in FACS buffer pelleted 1×s (2000 rpm for 5 min). Mix on shaker for 30 sec. For Intracellular markers staining (MX-1): Add 50 ul of BD Perm buffer III and mix on shaker for 30 sec. Incubate on ice for 30 minutes (in the dark). Wash with 50 uL of FACS buffer 2× (spin @2300 rpm×5 min after perm) followed by mixing on shaker for 30 sec. Resuspended in 20 ul of FACS buffer containing MX1 antibody ( )(4812)-Alexa 647: Novus Biologicals #NBP2-43704AF647) 20 ul FACS bf+0.8 ul hIgG+0.04 ul MX-1. Spin 1000 rpm for 1 min, mix on shaker for 30 se and the samples were incubated at RT in the dark for 45 minutes followed by washing 2×FACS buffer (spin @2300 rpm×5 min after perm). Resuspend 20 ul (35 uL total per well) of FACS buffer and cover with foil and place in 4° C. to read the following day. Plates were read on iQuePlus. The results were loaded into toolset and […] curves are generated in curve master. The y-axis 100% is set to 1 uM of resiquimod.

human TLR7 = biological target: T1, human TLR7 (Homo sapiens, UniProt Q9NYK1); experiment: Human TLR7 agonist activity reporter assay (HEK-Blue TLR7 cells, SEAP reporter); assay type: cell-based; settings: 18 h treatment, average where assay was performed multiple times, read-out: hTLR7 Agonism EC50
T1 construct: host or cells: HEK-Blue TLR7 cells (engineered human embryonic kidney cells)
T1 sequence (Q9NYK1 27-1049): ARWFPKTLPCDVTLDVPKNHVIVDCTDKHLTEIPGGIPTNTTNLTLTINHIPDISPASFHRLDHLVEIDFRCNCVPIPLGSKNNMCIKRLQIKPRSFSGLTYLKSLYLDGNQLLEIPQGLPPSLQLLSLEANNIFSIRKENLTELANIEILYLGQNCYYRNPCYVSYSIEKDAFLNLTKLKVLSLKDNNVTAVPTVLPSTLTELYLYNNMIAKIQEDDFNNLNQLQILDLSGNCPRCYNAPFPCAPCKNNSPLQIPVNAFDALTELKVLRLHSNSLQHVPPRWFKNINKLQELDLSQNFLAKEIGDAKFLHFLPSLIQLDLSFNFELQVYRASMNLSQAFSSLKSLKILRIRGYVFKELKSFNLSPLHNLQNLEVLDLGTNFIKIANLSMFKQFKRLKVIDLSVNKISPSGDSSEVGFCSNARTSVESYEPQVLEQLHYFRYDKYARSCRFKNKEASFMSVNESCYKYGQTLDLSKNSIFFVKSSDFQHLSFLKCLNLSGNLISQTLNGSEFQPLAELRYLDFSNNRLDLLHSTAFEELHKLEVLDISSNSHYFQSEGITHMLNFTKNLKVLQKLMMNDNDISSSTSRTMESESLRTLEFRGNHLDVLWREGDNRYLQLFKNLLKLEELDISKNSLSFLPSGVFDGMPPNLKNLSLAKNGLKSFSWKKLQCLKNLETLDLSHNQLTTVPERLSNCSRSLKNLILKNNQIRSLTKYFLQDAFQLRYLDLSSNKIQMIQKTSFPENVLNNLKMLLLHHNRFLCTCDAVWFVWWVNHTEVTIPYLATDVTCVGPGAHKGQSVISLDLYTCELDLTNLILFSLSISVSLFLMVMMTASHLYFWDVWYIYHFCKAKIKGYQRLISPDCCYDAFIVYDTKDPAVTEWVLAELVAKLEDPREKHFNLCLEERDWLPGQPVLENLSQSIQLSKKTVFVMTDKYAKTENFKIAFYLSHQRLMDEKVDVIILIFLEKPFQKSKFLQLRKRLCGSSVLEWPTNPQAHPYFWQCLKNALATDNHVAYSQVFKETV
Protocol: This procedure describes a method for assaying human TLR7 (hTLR7) agonist activity of the compounds disclosed in this specification.
HEK-Blue™ TLR7 cells were added to each well of a 384-well tissue-culture plate (15,000 cells per well) and incubated 16-18 h at 37° C., 5% CO2. Compounds (100 nl) were dispensed into wells containing the HEK-Blue™ TLR cells and the treated cells were incubated at 37° C., 5% CO2. After 18 h treatment ten microliters of freshly-prepared Quanti-Blue™ reagent (Invivogen) was added to each well, incubated for 30 min (37° C., 5% CO2) and SEAP levels measured using an Envision plate reader (OD=620 nm). The half maximal effective concentration values (EC50; compound concentration which induced a response halfway between the assay baseline and maximum) were calculated.

EC50 (CD69) | EC50 (human TLR7) | SMILES
2.7 nM | 21.8 nM | CCC[C@@H](CCO)Nc1nc(N)nc2c(C)nn(Cc3ccc(CNC4CCOCC4)cc3OC)c12 [Compound 127, (3S)-3-({5-amino-1-[(2-methoxy-4-{[(oxan-4-yl)amino]methyl}phenyl)-methyl]-3-methyl-1H-pyrazolo[4,3-d]pyrimidin-7-yl}amino)hexan-1-ol]
1.2 nM | 7.2 nM | CCC[C@@H](CCO)Nc1nc(N)nc2c(C)nn(Cc3ccc(CN4CCN(CCO)CC4)cc3OC)c12 [Compound 128, (3S)-3-({5-amino-1-[(4-{[4-(2-hydroxyethyl)piperazin-1-yl]methyl}-2-methoxy-phenyl)methyl]-3-methyl-1H-pyrazolo[4,3-d]pyrimidin-7-yl}amino)hexan-1-ol]
3.5 nM | 5.93 nM | CCC[C@@H](CCO)Nc1nc(N)nc2c(C)nn(Cc3ccc(CN4CCN(C)CC4)cc3OC)c12 [Compound 129, (3S)-3-{[5-amino-1-({2-methoxy-4-[(4-methyl-piperazin-1-yl)methyl]-phenyl}methyl)-3-methyl-1H-pyrazolo[4,3-d]pyrimidin-7-yl]amino}hexan-1-ol]
7.5 nM | 93.8 nM | CCC[C@@H](CCO)Nc1nc(N)nc2c(C)nn(Cc3ccc(CN[C@@H]4CCCOC4)cc3OC)c12 [Compound 130, (3S)-3-[(5-amino-1-{[2-methoxy-4-({[(3R)-oxan-3-yl]amino}methyl)phenyl]-methyl}-3-methyl-1H-pyrazolo[4,3-d]pyrimidin-7-yl)amino]hexan-1-ol]
41.4 nM | 224 nM | CCCCNc1nc(N)nc2c(C)nn(Cc3ncc(CN4CCN(CCO)CC4)cc3OC)c12 [Compound 131, 2-{4-[(6-{[5-amino-7-(butyl-amino)-3-methyl-1H-pyrazolo[4,3-d]pyrimidin-1-yl]methyl}-5-methoxy-pyridin-3-yl)methyl]piperazin-1-yl}ethan-1-ol]
9.3 nM | 40.4 nM | CCC[C@@H](CCO)Nc1nc(N)nc2c(F)nn(Cc3ccc(CN[C@@H]4COC[C@H]4O)cc3OC)c12 [Compound 132, (3S,4R)-4-[({4-[(5-amino-3-fluoro-7-{[(3S)-1-hydroxy-hexan-3-yl]amino}-1H-pyrazolo[4,3-d]pyrimidin-1-yl)-methyl]-3-methoxyphenyl}-methyl)amino]oxolan-3-ol]
12.6 nM | 47.9 nM | CCC[C@@H](CCO)Nc1nc(N)nc2c(F)nn(Cc3ccc(CN[C@H]4COC[C@@H]4O)cc3OC)c12 [Compound 133, (3R,4S)-4-[({4-[(5-amino-3-fluoro-7-{[(3S)-1-hydroxy-hexan-3-yl]amino}-1H-pyrazolo[4,3-d]pyrimidin-1-yl)-methyl]-3-methoxyphenyl}-methyl)amino]oxolan-3-ol]

Second part, the molecule before the results:

SMILES | EC50 (CD69) | EC50 (human TLR7)
CCCCNc1nc(N)nc2c(CC)nn(Cc3ccc(CNC4CCOCC4)cc3OC)c12 [Compound 122, N7-butyl-3-ethyl-1-[(2-methoxy-4-{[(oxan-4-yl)amino]methyl}phenyl)-methyl]-1H-pyrazolo[4,3-d]pyrimidine-5,7-diamine] | 88.7 nM | 203 nM
CCCCNc1nc(N)nc2c(C(C)C)nn(Cc3ccc(CNC4CCOCC4)cc3OC)c12 [Compound 123, N7-butyl-1-[(2-methoxy-4-{[(oxan-4-yl)amino]methyl}-phenyl)methyl]-3-(propan-2-yl)-1H-pyrazolo[4,3-d]pyrimidine-5,7-diamine] | 418 nM | 1040 nM
CCCCNc1nc(N)nc2c(C3CCOC3)nn(Cc3ccc(CNC4CCOCC4)cc3OC)c12 (stereo not drawn) [Compound 124, N7-butyl-1-[(2-methoxy-4-{[(oxan-4-yl)amino]methyl}-phenyl)methyl]-3-(oxolan-3-yl)-1H-pyrazolo[4,3-d]pyrimidine-5,7-diamine] | 339 nM | 798 nM
CCC[C@@H](CO)Nc1nc(N)nc2c(C)nn(Cc3ccc(CN4CCN(CCO)CC4)cc3OC)c12 [Compound 125, (2S)-2-({5-amino-1-[(4-{[4-(2-hydroxyethyl)piperazin-1-yl]methyl}-2-methoxy-phenyl)methyl]-3-methyl-1H-pyrazolo[4,3-d]pyrimidin-7-yl}amino)pentan-1-ol] | 237 nM | 236 nM
CCC[C@@H](CCO)Nc1nc(N)nc2c(C)nn(Cc3ccc(CO)cc3OC)c12 [Compound 126, (3S)-3-[(5-amino-1-{[4-(hydroxymethyl)-2-methoxyphenyl]methyl}-3-methyl-1H-pyrazolo[4,3-d]pyrimidin-7-yl)amino]hexan-1-ol] | 90.2 nM | 63.4 nM
